Values after ≈ are worked out from the molar mass of the structure shown.
Assays:
Format in all cases: functional
Staphylococcus aureus [1] = assay: Antimicrobial activity against methicillin-resistant Staphylococcus aureus
Enterococcus faecium = assay: Antimicrobial activity against vancomycin-resistant Enterococcus faecium
Staphylococcus aureus [2] = assay: Antimicrobial activity against vancomycin-susceptible Staphylococcus aureus ATCC 25923
Escherichia coli [3] = assay: Antimicrobial activity against Escherichia coli 50
Escherichia coli [4] = assay: Antimicrobial activity against Escherichia coli ATCC 25922
Staphylococcus aureus [5] = assay: Antimicrobial activity against methicillin-sensitive Staphylococcus aureus ATCC 13709
Streptococcus pneumoniae [6] = assay: Antimicrobial activity against penicillin- and erythromycin-resistant Streptococcus pneumoniae
Haemophilus influenzae [7] = assay: Antimicrobial activity against Haemophilus influenzae ATCC 31517 MMSA
Enterococcus faecalis = assay: Antimicrobial activity against vancomycin-susceptible Enterococcus faecalis ATCC 29212
Escherichia coli [8] = assay: Antimicrobial activity against Escherichia coli 49
Haemophilus influenzae [9] = assay: Antimicrobial activity against LS2 Efflux knock-out Haemophilus influenzae
Streptococcus pneumoniae [10] = assay: Antimicrobial activity against penicillin- and erythromycin-resistant Streptococcus pneumoniae in presence of 2.5% horse blood
Streptococcus pneumoniae [11] = assay: Antimicrobial activity against erythromycin-susceptible Streptococcus pneumoniae ATCC 49619
Pseudomonas aeruginosa = assay: Antimicrobial activity against Pseudomonas aeruginosa ATCC 27853
Staphylococcus aureus [12] = assay: Antimicrobial activity against Staphylococcus aureus Oxford

| Compound | MIC (Staphylococcus aureus [1]) | MIC (Enterococcus faecium) | MIC (Staphylococcus aureus [2]) | MIC (Escherichia coli [3]) | MIC (Escherichia coli [4]) | MIC (Staphylococcus aureus [5]) | MIC (Streptococcus pneumoniae [6]) | MIC (Haemophilus influenzae [7]) | MIC (Enterococcus faecalis) | MIC (Escherichia coli [8]) | MIC (Haemophilus influenzae [9]) | MIC (Streptococcus pneumoniae [10]) | MIC (Streptococcus pneumoniae [11]) | MIC (Pseudomonas aeruginosa) | MIC (Staphylococcus aureus [12]) |
| --- | --- | --- | --- | --- | --- | --- | --- | --- | --- | --- | --- | --- | --- | --- | --- |
| CCCCCCCCCCCCC/C(NCCCN)=C1\C(=O)CN(CCCCCC)C1=O | 4 mg/L (≈ 8.89 µM) | 1 mg/L (≈ 2.22 µM) | 4 mg/L (≈ 8.89 µM) | > 32 mg/L | > 32 mg/L | 2 mg/L (≈ 4.45 µM) | 8 mg/L (≈ 17.8 µM) | 64 mg/L (≈ 142 µM) | 2 mg/L (≈ 4.45 µM) | > 32 mg/L | 32 mg/L (≈ 71.2 µM) | 32 mg/L | 2 mg/L (≈ 4.45 µM) | > 32 mg/L | 4 mg/L (≈ 8.89 µM) |
| CCCCCCCCCCC/C(Nc1ccc(N)cc1)=C1\C(=O)CN(CCCCCC)C1=O | > 32 mg/L | > 32 mg/L | > 32 mg/L | > 32 mg/L | > 32 mg/L | > 32 mg/L | > 32 mg/L | > 32 mg/L | > 32 mg/L | > 32 mg/L | > 32 mg/L | > 32 mg/L | > 32 mg/L | > 32 mg/L | > 32 mg/L |
| CCOC(=O)[C@]12CO[C@H](C(C)(C)C)N1C(=O)/C(=C(\C)NCc1ccc(C)o1)C2=O | > 32 mg/L | > 32 mg/L | > 32 mg/L | > 32 mg/L | > 32 mg/L | > 32 mg/L | > 32 mg/L | > 32 mg/L | > 32 mg/L | > 32 mg/L | > 32 mg/L | > 32 mg/L | > 32 mg/L | > 32 mg/L | > 32 mg/L |
| O=C1CNC(=O)/C1=C(\NC1CCCCC1)c1cccc2ccccc12 | > 32 mg/L | > 32 mg/L | > 32 mg/L | > 32 mg/L | > 32 mg/L | > 32 mg/L | > 32 mg/L | > 32 mg/L | > 32 mg/L | > 32 mg/L | > 32 mg/L | > 32 mg/L | > 32 mg/L | > 32 mg/L | > 32 mg/L |
| CCCC(=O)N1CC(=O)/C(=C(\CC23CC4CC(C)(CC(C)(C4)C2)C3)NCCCN2CCOCC2)C1=O | > 64 mg/L | > 64 mg/L | > 64 mg/L | > 32 mg/L | > 32 mg/L | > 64 mg/L | 16 mg/L (≈ 32 µM) | > 64 mg/L | > 64 mg/L | > 32 mg/L | 8 mg/L (≈ 16 µM) | 32 mg/L | 16 mg/L (≈ 32 µM) | > 32 mg/L | > 64 mg/L |
| CCOC(=O)[C@]12CO[C@H](C(C)(C)C)N1C(=O)/C(=C(\C)NCCOc1ccccc1)C2=O | 64 mg/L (≈ 149 µM) | 8 mg/L (≈ 18.6 µM) | 64 mg/L (≈ 149 µM) | > 32 mg/L | > 32 mg/L | 64 mg/L (≈ 149 µM) | 1 mg/L (≈ 2.32 µM) | > 64 mg/L | 64 mg/L (≈ 149 µM) | > 32 mg/L | 32 mg/L (≈ 74.3 µM) | 2 mg/L | 2 mg/L (≈ 4.65 µM) | > 32 mg/L | > 64 mg/L |
| CCCC(=O)N1CC(=O)/C(=C(\CC23CC4CC(CC(C4)C2)C3)NCCCN2CCOCC2)C1=O | > 64 mg/L | > 64 mg/L | > 64 mg/L | > 32 mg/L | > 32 mg/L | > 64 mg/L | 64 mg/L (≈ 136 µM) | > 64 mg/L | > 64 mg/L | > 32 mg/L | 16 mg/L (≈ 33.9 µM) | 64 mg/L | 64 mg/L (≈ 136 µM) | > 32 mg/L | > 64 mg/L |
| CCCCCCCCCN/C(C)=C1/C(=O)N2[C@@H](C(C)(C)C)OC[C@]2(C(=O)OC)C1=O | > 32 mg/L | > 32 mg/L | > 32 mg/L | > 32 mg/L | > 32 mg/L | > 32 mg/L | > 32 mg/L | > 32 mg/L | > 32 mg/L | > 32 mg/L | > 32 mg/L | > 32 mg/L | > 32 mg/L | > 32 mg/L | > 32 mg/L |
| CCOC(=O)[C@]12CO[C@H](C(C)(C)C)N1C(=O)/C(=C(\C)NCc1cccc(CN3CCC(C)CC3)c1)C2=O | > 32 mg/L | > 32 mg/L | > 32 mg/L | > 32 mg/L | > 32 mg/L | > 32 mg/L | > 32 mg/L | > 32 mg/L | > 32 mg/L | > 32 mg/L | > 32 mg/L | > 32 mg/L | > 32 mg/L | > 32 mg/L | > 32 mg/L |
| CCCCC/C(NC(C)CCCN(CC)CC)=C1\C(=O)C(CCSC)N(C(=O)CC(C)CC(C)(C)C)C1=O (stereo not given) | 16 mg/L (≈ 29 µM) | 8 mg/L (≈ 14.5 µM) | 16 mg/L (≈ 29 µM) | > 32 mg/L | > 32 mg/L | 16 mg/L (≈ 29 µM) | 4 mg/L (≈ 7.25 µM) | > 64 mg/L | 16 mg/L (≈ 29 µM) | > 32 mg/L | 8 mg/L (≈ 14.5 µM) | 8 mg/L | 8 mg/L (≈ 14.5 µM) | > 32 mg/L | 8 mg/L (≈ 14.5 µM) |
| CCN(CC)CCCC(C)N/C(CCCOc1ccccc1)=C1/C(=O)C(CC(C)C)N(C(=O)c2ccccc2)C1=O (stereo not given) | > 32 mg/L | > 32 mg/L | > 32 mg/L | > 32 mg/L | > 32 mg/L | > 32 mg/L | > 32 mg/L | > 32 mg/L | > 32 mg/L | > 32 mg/L | > 32 mg/L | > 32 mg/L | > 32 mg/L | > 32 mg/L | > 32 mg/L |

— ChEMBL document CHEMBL3232809, “Synthesis, antibiotic activity and structure-activity relationship study of some 3-enaminetetramic acids” (2014)
